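Cultured in 96-well plates, cells were exposed to test compound for 48 hours across five concentrations. GI50 is the concentration that inhibits growth by half. TGI marks complete inhibition of growth.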
Columns and labels:
Assay in all cases: inhibition of tumour cell growth, NCI panel, 48 h
[1] = test system: HCT-15 colon
[2] = test system: HS 578T breast
[3] = test system: K-562 leukemia
[4] = test system: MDA-MB-231 breast
[5] = test system: NCI-H23 lung
[6] = test system: OVCAR-3 ovarian
[7] = test system: SF-268 CNS
[8] = test system: TK-10 renal
[9] = test system: HOP-92 NSCLC
[10] = test system: SK-MEL-2 melanoma

SMILES	GI50 [1] [µM]	TGI [1] [µM]	GI50 [2] [µM]	TGI [2] [µM]	GI50 [3] [µM]	TGI [3] [µM]	GI50 [4] [µM]	TGI [4] [µM]	GI50 [5] [µM]	TGI [5] [µM]	GI50 [6] [µM]	TGI [6] [µM]	GI50 [7] [µM]	TGI [7] [µM]	GI50 [8] [µM]	TGI [8] [µM]	GI50 [9] [µM]	TGI [9] [µM]	GI50 [10] [µM]	TGI [10] [µM]
Cc1ccc(C2=Nc3c(N)ncnc3NC(c3ccc4c(c3)OCO4)C2)cc1 (stereo not drawn)	3.14	13.7	7.28	40	4.19	> 100	4.37	19.5	10.2	63.3	2.75	6.11	4.06	16.3	4.47	21.1	–	–	–	–
Cc1cc(C(=O)O)c(C)n1-c1cccc(C(=O)O)c1	> 100	> 100	–	–	> 100	> 100	> 100	> 100	> 100	> 100	> 100	> 100	> 100	> 100	> 100	> 100	> 100	> 100	> 100	> 100
CC(/C=C/c1ccccc1)=N\NC(N)=S	–	> 100	–	–	–	–	–	> 100	–	> 100	–	66.8	–	> 100	–	> 100	–	> 100	–	–
O=C1Nc2ccccc2/C1=C\c1nc(C2CCN(S(=O)(=O)c3ccc(F)cc3)CC2)n2ccccc12	> 100	> 100	1.22	5.78	> 100	> 100	2.9	60.8	4.29	68.4	2.72	11.1	1.9	13.8	2.41	8.62	–	–	2.08	7.35
COc1cccc2c1C(=O)c1c(O)c3c(c(O)c1C2=O)C[C@@](O)(C(=O)CO)CC3OC1CC(O)C(O)C(C)O1 (stereo partly drawn)	–	5.89	–	–	–	5.51	–	6	–	0.501	–	11.3	–	1.81	–	11.6	–	2.26	–	1.58
C=CC1(NS(=O)(=O)c2ccc(C)cc2)CCC(C(C)(C)C)CC1 (stereo not drawn)	–	> 100	–	–	–	> 100	–	–	–	–	–	> 100	–	> 100	–	> 100	–	–	–	> 100
CCCNC(=O)c1ccc(Cl)cc1Cl	> 100	> 100	–	–	> 100	> 100	> 100	> 100	> 100	> 100	> 100	> 100	> 100	> 100	> 100	> 100	> 100	> 100	> 100	> 100
OCCNCCCOc1ccc2ncnc(Nc3ccc(Oc4cccc(C(F)(F)F)c4)c(Cl)c3)c2c1	1.54	3.01	–	–	1.79	4.48	1.72	3.2	1.63	3.13	1.5	2.92	–	–	1.13	2.54	1.05	2.37	1.7	3.38

From PubChem BioAssay (NCI)
